# Data: publication PMC9578396, “Intrinsic Antibacterial Activity of Xeruborbactam In Vitro: Assessing Spectrum and Mode of Action” (Antimicrobial Agents and Chemotherapy, 2022)
# Read-outs that look alike come from different tables or passages of the source.
# What was measured:
# Format in all cases: cell-based
# Pseudomonas aeruginosa = test: Broth microdilution MIC (CLSI), Pseudomonas aeruginosa; conditions: Pseudomonas aeruginosa
# Description: (§1) (i) Panels of engineered bacterial strains containing various combinations of porin and efflux mutations were used. The construction of all the strains used in the study is described in detail in references, [44], and [45]. (ii) KPC-producing clinical isolates and their derivatives that lost KPC plasmids were used also. These strains and their origins are described in the Table S2. (iii) Finally, KPC-producing clinical isolates enriched in strains with porin mutations were used. The mutations identified include various deletions, insertions, nonsense mutations, and decreased expression. Most of the isolates were obtained from JMI Laboratories or International Health Management Associates (IHMA); they were collected in the course of global surveillance studies.
# (§2) Bacterial isolates were subjected to broth microdilution susceptibility testing, performed according to Clinical and Laboratory Standards Institute (CLSI) methods ([46]), using panels prepared in-house. […] Xeruborbactam was synthesized at Qpex Biopharma, San Diego, CA. Avibactam was purchased from eNovation Chemicals LLC, Bridgewater, NJ, USA; zidebactam was from MedKoo Biosciences, Inc., Morrisville, NC, and nacubactam was from Advanced ChemBlocks, Hayward, CA. Durlobactam was synthesized at Acme Bioscience, Palo Alto, CA, USA.
# Acinetobacter baumannii = test: Broth microdilution MIC (CLSI), Acinetobacter baumannii; conditions: Acinetobacter baumannii
# Description: as §1, §2
# Klebsiella pneumoniae = test: microbe, parasite or virus in culture; conditions: Klebsiella pneumoniae
# Description: as §1, §2
# Escherichia coli = test: Broth microdilution MIC (CLSI), Escherichia coli
# Description: as §1, §2
# Enterobacterales = test: Broth microdilution MIC (CLSI), Enterobacterales; conditions: read-out: antibacterial potency (MIC)
# Description: Bacterial isolates were subjected to broth microdilution susceptibility testing, performed according to Clinical and Laboratory Standards Institute (CLSI) methods ([46]), using panels prepared in-house. Meropenem was purchased from Sandoz, and all other antibiotics were from Sigma-Aldrich. Xeruborbactam was synthesized at Qpex Biopharma, San Diego, CA. Avibactam was purchased from eNovation Chemicals LLC, Bridgewater, NJ, USA; zidebactam was from MedKoo Biosciences, Inc., Morrisville, NC, and nacubactam was from Advanced ChemBlocks, Hayward, CA. Durlobactam was synthesized at Acme Bioscience, Palo Alto, CA, USA.
# [1] = strain PAM1020, wild type, read-out: MIC
# [2] = strain PAM1032, nalB (MexAB-OprM overexpression)
# [3] = strain PAM1033, nfxB (MexCD-OprJ overexpression)
# [4] = strain PAM1034, nfxC (MexEF-OprN overexpression)
# [5] = strain AB1007, wild type, read-out: MIC
# [6] = strain ACM1015, ΔadeIJK ΔadeABC
# [7] = strain ACM1027, adeN (AdeIJK overexpression)
# [8] = strain ACM1030, adeS (AdeABC overexpression)
# [9] = KPM1026a, parent, read-out: MIC
# [10] = strain KPM1026a, wild type, read-out: MIC
# [11] = strain KPM1027, ramR, read-out: MIC
# [12] = strain KPM1171, ramR ompK36_1171, read-out: MIC
# [13] = strain KPM2040, ompK36_2040, read-out: MIC
# [14] = strain KPM2613, ΔompK35 ompK36_2040
# [15] = EC1078, PBP2 same as MG1655, PBP3 I332V
# [16] = EC1081, PBP2 same as MG1655, PBP3 Q227H
# [17] = EC1085, PBP2 T331P, PBP3 A233T I332V
# [18] = EC1088, PBP2 A308G, PBP3 same as MG1655
# [19] = EC1098, PBP2 V217M, PBP3 YRIN ins, I532L
# [20] = EC1103, PBP2 same as MG1655, PBP3 YRIN ins, Q227H, E349K, I532L
# [21] = EC1105, PBP2 A543T, PBP3 YRIN ins, Q227H, E349K, I532L
# [22] = EC1119, PBP2 same as MG1655, PBP3 YRIN ins, Q227H, E349K, I532L
# [23] = EC1121, PBP2 V217M, PBP3 YRIN ins, E349K, I532L
# [24] = Escherichia coli, strain ECM5497, wild type, read-out: MIC
# [25] = Escherichia coli, strain ECM6001, ΔacrB
# [26] = Escherichia coli, strain ECM6502, marR (AcrAB overexpression)
smiles,measurement,setting,value
CC1=C[C@@H]2CN(C(=O)N2OS(=O)(=O)O)[C@@H]1C(N)=O [Durlobactam],MIC,"Pseudomonas aeruginosa; after inactivation of MexAB-OprM, read-out: MIC",8 µg/mL
same,MIC,"Pseudomonas aeruginosa; before inactivation of MexAB-OprM (wild type), read-out: MIC",64 µg/mL
same,MIC,Pseudomonas aeruginosa; [1],64 µg/mL
same,MIC,Pseudomonas aeruginosa; [2],> 256 µg/mL
same,MIC,Pseudomonas aeruginosa; [3],4 µg/mL
same,MIC,Pseudomonas aeruginosa; [4],128 µg/mL
same,MIC,"Pseudomonas aeruginosa; strain PAM1106, mexA::Tet",8 µg/mL
same,MIC,"Pseudomonas aeruginosa; strain PAM1154, oprM::Hg",8 µg/mL
same,MIC,Acinetobacter baumannii; [5],64 µg/mL
same,MIC,"Acinetobacter baumannii; strain ACM1013, ΔadeIJK",32 µg/mL
same,MIC,"Acinetobacter baumannii; strain ACM1014, ΔadeABC",64 µg/mL
same,MIC,Acinetobacter baumannii; [6],16 µg/mL
same,MIC,Acinetobacter baumannii; [7],128 µg/mL
same,MIC,Acinetobacter baumannii; [8],64 µg/mL
same,MIC,"Klebsiella pneumoniae; KPM1026a, alone, read-out: MIC",0.25 µg/mL
same,MIC,Klebsiella pneumoniae; [9],0.25 µg/mL
same,MIC,"Klebsiella pneumoniae; KPM3532 (TolQ::M189K), alone",8 µg/mL
same,MIC,"Klebsiella pneumoniae; KPM3532, TolQ::M189K",8 µg/mL
same,MIC,"Klebsiella pneumoniae; KPM3534 (TolQ::S31F), alone",16 µg/mL
same,MIC,"Klebsiella pneumoniae; KPM3534, TolQ::S31F",16 µg/mL
same,MIC,"Klebsiella pneumoniae; KPM4235, TolQ::IP(183–1844)PR",16 µg/mL
same,MIC,"Klebsiella pneumoniae; KPM4236, TolQ::TAA at aa 103",16 µg/mL
same,MIC,"Klebsiella pneumoniae; KPM4238, TolQ::S25F",16 µg/mL
same,MIC,"Klebsiella pneumoniae; KPM4239, TolQ::S28F",16 µg/mL
same,MIC,"Klebsiella pneumoniae; KPM4240, TolQ::S25Y",16 µg/mL
same,MIC,Klebsiella pneumoniae; [10],0.5 µg/mL
same,MIC,Klebsiella pneumoniae; [11],0.5 µg/mL
same,MIC,Klebsiella pneumoniae; [12],32 µg/mL
same,MIC,Klebsiella pneumoniae; [13],4 µg/mL
same,MIC,"Klebsiella pneumoniae; strain KPM2600, ΔompK35",0.5 µg/mL
same,MIC,Klebsiella pneumoniae; [14],8 µg/mL
same,MIC,"Klebsiella pneumoniae; strain KPM2696, ΔacrB",0.25 µg/mL
same,MIC,Escherichia coli; [15],8
same,MIC,Escherichia coli; [16],0.25
same,MIC,Escherichia coli; [17],32
same,MIC,Escherichia coli; [18],0.5
same,MIC,"Escherichia coli; EC1097, PBP2 M574I, PBP3 Q227H",1
same,MIC,Escherichia coli; [19],0.5
same,MIC,Escherichia coli; [20],0.25
same,MIC,Escherichia coli; [21],1
same,MIC,Escherichia coli; [22],8
same,MIC,Escherichia coli; [23],0.5
same,MIC,Escherichia coli; [24],0.5 µg/mL
same,MIC,Escherichia coli; [25],0.5 µg/mL
same,MIC,Escherichia coli; [26],0.25 µg/mL
same,MIC,Enterobacterales,0.125 to 0.5 µg/mL
O=C(NNC(=O)[C@@H]1CC[C@@H]2CN1C(=O)N2OS(=O)(=O)O)[C@@H]1CCCNC1 [Zidebactam],MIC,Pseudomonas aeruginosa; [1],2 µg/mL
same,MIC,Pseudomonas aeruginosa; [2],4 µg/mL
same,MIC,Pseudomonas aeruginosa; [3],0.125 µg/mL
same,MIC,Pseudomonas aeruginosa; [4],2 µg/mL
same,MIC,"Pseudomonas aeruginosa; strain PAM1106, mexA::Tet",2 µg/mL
same,MIC,"Pseudomonas aeruginosa; strain PAM1154, oprM::Hg",2 µg/mL
same,MIC,Acinetobacter baumannii; [5],> 256 µg/mL
same,MIC,"Acinetobacter baumannii; strain ACM1013, ΔadeIJK",> 256 µg/mL
same,MIC,"Acinetobacter baumannii; strain ACM1014, ΔadeABC",> 256 µg/mL
same,MIC,Acinetobacter baumannii; [6],> 256 µg/mL
same,MIC,Acinetobacter baumannii; [7],> 256 µg/mL
same,MIC,Acinetobacter baumannii; [8],> 256 µg/mL
same,MIC,"Klebsiella pneumoniae; KPM1026a, alone, read-out: MIC",0.25 µg/mL
same,MIC,Klebsiella pneumoniae; [9],0.25 µg/mL
same,MIC,"Klebsiella pneumoniae; KPM3532 (TolQ::M189K), alone",> 64 µg/mL
same,MIC,"Klebsiella pneumoniae; KPM3532, TolQ::M189K",> 64 µg/mL
same,MIC,"Klebsiella pneumoniae; KPM3534 (TolQ::S31F), alone",> 64 µg/mL
same,MIC,"Klebsiella pneumoniae; KPM3534, TolQ::S31F",> 64 µg/mL
same,MIC,"Klebsiella pneumoniae; KPM4235, TolQ::IP(183–1844)PR",> 64 µg/mL
same,MIC,"Klebsiella pneumoniae; KPM4236, TolQ::TAA at aa 103",> 64 µg/mL
same,MIC,"Klebsiella pneumoniae; KPM4238, TolQ::S25F",> 64 µg/mL
same,MIC,"Klebsiella pneumoniae; KPM4239, TolQ::S28F",> 64 µg/mL
same,MIC,"Klebsiella pneumoniae; KPM4240, TolQ::S25Y",> 64 µg/mL
same,MIC,Klebsiella pneumoniae; [10],0.25 µg/mL
same,MIC,Klebsiella pneumoniae; [11],0.25 µg/mL
same,MIC,Klebsiella pneumoniae; [12],> 64 µg/mL
same,MIC,Klebsiella pneumoniae; [13],> 64 µg/mL
same,MIC,"Klebsiella pneumoniae; strain KPM2600, ΔompK35",0.25 µg/mL
same,MIC,Klebsiella pneumoniae; [14],> 64 µg/mL
same,MIC,"Klebsiella pneumoniae; strain KPM2696, ΔacrB",0.25 µg/mL
same,MIC,Escherichia coli; [15],8
same,MIC,Escherichia coli; [16],0.125
same,MIC,Escherichia coli; [17],16
same,MIC,Escherichia coli; [18],0.25
same,MIC,"Escherichia coli; EC1097, PBP2 M574I, PBP3 Q227H",0.25
same,MIC,Escherichia coli; [19],0.25
same,MIC,Escherichia coli; [20],0.25
same,MIC,Escherichia coli; [21],0.5
same,MIC,Escherichia coli; [22],8
same,MIC,Escherichia coli; [23],0.5
same,MIC,Escherichia coli; [24],0.125 µg/mL
same,MIC,Escherichia coli; [25],0.125 µg/mL
same,MIC,Escherichia coli; [26],0.5 µg/mL
same,fold effect on MIC,Escherichia coli; overexpression of AcrAB in E. coli,4 fold
same,MIC,Enterobacterales,0.125 to 0.5 µg/mL
